Experimental data as given in paper PMC7345095, “New Synthetic Nitro-Pyrrolomycins as Promising Antibacterial and Anticancer Agents” (Antibiotics, 2020).
≈ marks a conversion by molar mass, not a printed value. Where two headings read alike, the source gives them in different places.

Legend:
[1] = tested on: Pseudomonas aeruginosa ATCC 10145; experiment: Kill curve assay (MBC), planktonic cells; assay type: cell-based; details: for MBC: Pseudomonas aeruginosa, ATCC10145, minimal bactericidal concentration, planktonic cells, 24 h challenge, LB medium, read-out: MBC P. aeruginosa; for B-SI (Bacterial Selectivity Index), P. aeruginosa: ratio of IC50 of normal hTERT-RPE-1 to MBC of P. aeruginosa, first value of the cell; for log reduction in the number of viable CFUs, P. aeruginosa: highest concentration tested 100 μM, 24 h
Procedure: (§1) Kill curve assays were performed to test the antimicrobial efficacy of pyrrolomycins (i.e., 1, 2, 5a, 5b, 5c, 5d), as well as that of the natural PM-C against the indicator pathogen Staphylococcus aureus ATCC 25923 and Pseudomonas aeruginosa ATCC 10145 strains. Briefly, a single colony of either S. aureus or P. aeruginosa strains was picked up and pre-cultivated (ca. 16 h) at 37 °C with shacking (160 rpm) in Luria Bertani medium (hereinafter named as LB and composed of (g L^−1): sodium chloride, 10; yeast extract, 5; tryptone, 10). The same medium was solidified by adding 15 g L^−1 of bacteriological agar when needed. Bacterial cells were then inoculated (1% v/v) in LB medium amended with increasing concentrations—ranging from 0 to 100 μM as initial concentration—of each pyrrolomycin tested, challenging the cultures for 24 h and incubating them as reported above. The actual number of viable colony forming units per milliliter of culture (CFU mL^−1) of each bacterial strain, who survived the challenge exerted by pyrrolomycins, was evaluated through the spot plate count method and compared to unchallenged cultures, as reported elsewhere. The data are reported as average values (n = 3) of CFU mL^−1 in the logarithmic (Log10) scale with standard deviation (SD). Evaluation of the MIC of PM-5c, and -5d against S. aureus and of PM-5d against P. aeruginosa was performed by incubating 1% (v/v) of an overnight bacterial suspension in LB medium in presence of increasing concentrations of the PMs. As a control, MIC of PM-C was measured. At the time of the inoculum and after overnight challenge, the absorbance of the cultures at 600 nm, which is an indirect way to measure the bacterial cell growth, was registered using a Spark™ 10 M multimode microplate reader measuring. The experiment was carried out in triplicate, being the absorbance corrected by subtracting that of the culture medium amended with the corresponding PM tested.

[2] = tested on: Staphylococcus aureus ATCC 25923; experiment: Kill curve assay (MBC), planktonic cells; assay type: cell-based; details: for MBC: minimal bactericidal concentration, planktonic cells, 24 h challenge, LB medium, read-out: MBC S. aureus; for B-SI (Bacterial Selectivity Index), S. aureus: ratio of IC50 of normal hTERT-RPE-1 to MBC of S. aureus, second value of the cell
Procedure: as §1

[3] = tested on: P. aeruginosa; experiment: MIC by absorbance at 600 nm after overnight challenge; assay type: cell-based; details: Pseudomonas aeruginosa, LB medium, absorbance 600 nm
Procedure: as §1

[4] = tested on: S. aureus; experiment: as above; assay type: cell-based; details: Staphylococcus aureus, LB medium, absorbance 600 nm
Procedure: as §1

[5] = tested on: HCT116 colon cancer cell line; experiment: MTT viability assay; assay type: cell-based; details: for IC50: MTT, 48 h of treatment; for C-SI (Cancer Selectivity Index), HCT116: ratio of IC50 of normal hTERT-RPE-1 to that of HCT116, first value of the cell
Procedure: (§2) The HCT116 colon cancer cell line (ATCC® CCL-247™), the MCF 7 breast cancer cell line (ATCC® HTB-22™) and the hTERT RPE-1 -immortalized retinal pigment epithelial cell line (ATCC® CRL-4000™) used in this study were cultured in DMEM medium (Gibco, Paisley, UK), supplemented with 1% glutamine, 10% heat-inactivated fetal bovine serum and 100U/mL penicillin and 100 μg/mL streptomycin, as already described, and maintained at 37 °C and 5% CO2.
(§3) Cells were plated at 5 × 10^3 cells/well in 96-well plates and incubated for 24 h prior to treatment for further 48 h of different concentrations of PMs. After incubation, a sample of 20 μL of Thiazolyl Blue Tetrazolium Bromide (5 mg mL^−1) in PBS was added to each well and cultured for 2h at 37 °C in CO2 incubator. After removing the medium containing MTT and three washes with PBS, 100 μL of warm DMSO was added to each well to dissolve formazan. Samples were shaken for 10 min, at room temperature in the dark, and the absorbance was recorded at 570 nm using a microplate reader (Spark® 20M Tecan Trading AG, Switzerland). Percentage of cell viability with respect to untreated control cells (vehicle control) was calculated after subtraction of the blank. The IC50 values, that is the concentration necessary to inhibit the 50% of cell growth, was calculated using a dose-response model, obtained from sigmoidal fitting of response curves of percent inhibition versus logarithmic concentration of PMs, using Graph Pad Prism software. Each result represents the mean value of three different experiments performed in triplicate.

[6] = tested on: MCF 7 breast cancer cell line; experiment: MTT viability assay; assay type: cell-based; details: for IC50: MTT, 48 h of treatment; for C-SI (Cancer Selectivity Index), MCF 7: ratio of IC50 of normal hTERT-RPE-1 to that of MCF 7, second value of the cell
Procedure: as §2, §3

[7] = tested on: hTERT RPE-1 immortalized retinal pigment epithelial cell line; experiment: MTT viability assay (cytotoxicity on normal cells); assay type: cell-based; details: hTERT-RPE1; MTT, 48 h of treatment, normal epithelial cells; read-out: IC50 hTERT-RPE-1
Procedure: as §2, §3

[8] = tested on: HCT116 and MCF 7 cancer cell lines; experiment: MTT viability assay, statements over both cancer cell lines; assay type: cell-based; details: for IC50: MTT, 48 h challenge, group statement, read-out: IC50, regardless of the cancer cell line (HCT116, MCF 7); for C-SI, mean value among the two cancer cell lines: mean of HCT116 and MCF 7 C-SI
Procedure: as §2, §3

[9] = tested on: P. aeruginosa cells; experiment: AO/EB double staining of bacterial cells; assay type: cell-based, Pseudomonas aeruginosa; details: 10 μM (sub-inhibitory), 24 h
Procedure: It is noteworthy to highlight that the main difference between PM-C and 5d relies only on the presence of the nitro group in the position R3 of the latter, which is likely responsible for its enhanced electronegativity and, therefore, better biological reactivity over PM-C.
Figure 3 Fluorescence micrographs of P. aeruginosa cells treated for 24 h with 100 μM of PM-C or 10 μM of PM 5d after AO/EB double staining. Control represents untreated cells. Green (AO) are viable cells, red (EB) dead cells, and orange vital cells with damaged membranes.

[10] = tested on: HCT116 cells; experiment: Morphological assessment, phase contrast inverted microscope; assay type: cell-based; details: 0.1 µM (sub-inhibitory), 24 h
Procedure: HCT116 cells were seeded in 24 well culture plates with a cell density of 1 × 10^5 cells/well. After 24 h cells were incubated for 24 h with different concentration of the selected PMs, and observed under a phase contrast inverted microscope (Carl Zeiss) at 200× magnification, for morphological changes assessment.

[11] = tested on: HCT116 cells; experiment: Acridine orange/ethidium bromide (AO/EB) staining; assay type: cell-based; details: for AO/EB fluorescence of treated HCT116 cells (type of cell death): treated at IC50 for 24 and 48 h
Excerpt: Cells were immediately observed under a fluorescent microscopy (Carl Zeiss) at 630 × magnification.

[12] = tested on: Escherichia coli; parameters: method as in PMID 31405863, PMID 15730262; details: natural PMs; cited from earlier work
[13] = Staphylococcus aureus, ATCC25923

SMILES	MBC [1] [µM]	B-SI (Bacterial Selectivity Index), P. aeruginosa [1]	MBC [2, 13] [µM]	B-SI (Bacterial Selectivity Index), S. aureus [2]	IC50 ([5]; Homo sapiens, HCT-116, 48 h) [µM]	IC50 [5] [µM]	C-SI (Cancer Selectivity Index), HCT116 [5]	IC50 ([6]; Homo sapiens, MCF7, 48 h) [µM]	IC50 [6] [µM]	C-SI (Cancer Selectivity Index), MCF 7 [6]	IC50 [7] [µM]	IC50 [8] [µM]	C-SI, mean value among the two cancer cell lines [8]	morphology of treated HCT116 cells [10]	AO/EB fluorescence of treated HCT116 cells (type of cell death) [11]	MIC against Escherichia coli [12]	MBC [2] [µM]	log reduction in the number of viable CFUs, P. aeruginosa [1] [log]	melting point [°C]	other results
O=C(c1cc(Cl)cc(Cl)c1O)c1[nH]c(Cl)c(Cl)c1[N+](=O)[O-] [PM 5d, (3,5-Dichloro-2-hydroxyphenyl)(4,5-dichloro-3-nitro-1H-pyrrol-2-yl)methanone]	30 (≈ 11.1 µg/mL)	7.5	7.5 (≈ 2.77 µg/mL)	30	1.56	1.6 ± 0.2	143.3	1.57 ± 0.39	1.6 ± 0.4	143.4	225 ± 22.7	0.8 to 2.25	143	more fibroblastic and less clumped morphology	orange fluorescence	–	–	–	–	MIC [3]: > 20 µM; MIC [4]: 2 µM (≈ 0.74 µg/mL); AO/EB staining colour of P. aeruginosa cells [9]: either orange (indicating that cell membranes were damaged due to the entrance of EB) or red (indicating not viable cells); late apoptosis by AO/EB staining, HCT116 ([11]; treated at IC50, after 48 h): reddish orange cells
O=[N+]([O-])c1c([C@@H](O)c2cc(Cl)cc(Cl)c2O)[nH]c(Cl)c1Cl [PM-G]	–	–	–	–	–	–	–	–	–	–	–	–	–	–	–	more than 300 μM	–	–	–	–
O=C(c1cc([N+](=O)[O-])c[nH]1)c1cc(Cl)cc(Cl)c1O [PM 5a, (3,5-Dichloro-2-hydroxyphenyl)(4-nitro-1H-pyrrol-2-yl)methanone]	> 100	> 0.7	60 (≈ 18.1 µg/mL)	1.1	1.9 ± 0.42	–	34.6	2.25 ± 0.35	2.2 ± 0.3	29.2	65.8 ± 10.5	0.8 to 2.25	32	more fibroblastic and less clumped morphology	orange fluorescence	–	60 (≈ 18.1 µg/mL)	–	–	–
COc1c(Cl)cc(Cl)cc1C(=O)c1[nH]c(Cl)c(Cl)c1Cl [PM-J]	–	–	–	–	–	–	–	–	–	–	–	–	–	–	–	more than 300 μM	–	–	–	–
O=C(c1cc(Cl)c([N+](=O)[O-])[nH]1)c1cc(Cl)cc(Cl)c1O [PM 5b, (4-Chloro-5-nitro-1H-pyrrol-2-yl)(3,5-dichloro-2-hydroxyphenyl)methanone]	> 100	> 0.6	20 (≈ 6.71 µg/mL)	2.8	18.7 ± 3.81	18.7 ± 3.8	3	28.8 ± 4.21	28.8 ± 4.2	1.9	55.4 ± 13.2	> 7	2.5	–	–	–	20 (≈ 6.71 µg/mL)	2.7	180 to 182	–
COc1c(Cl)cc(Cl)cc1C(=O)c1cc(Cl)c(Cl)[nH]1 [PM-I]	–	–	–	–	–	–	–	–	–	–	–	–	–	–	–	more than 300 μM	–	–	–	–
O=C(c1cc(Br)cc(Br)c1O)c1[nH]c(Br)c(Br)c1Br [PM 1, 3,4,5,3′,5′-Pentabromo-2-(2′-hydroxybenzoyl)pyrrole, reference compound]	> 100	> 0.6	5 (≈ 2.91 µg/mL)	11.5	1.3 ± 0.3	–	44.2	1.22 ± 0.69	1.2 ± 0.7	47.3	57.7 ± 11.2	0.8 to 2.25	46	more fibroblastic and less clumped morphology	red fluorescence	–	–	2.2	–	–
COc1c(Cl)cc(Cl)cc1[C@H](O)c1[nH]c(Cl)c(Cl)c1[N+](=O)[O-] [PM-H]	–	–	–	–	–	–	–	–	–	–	–	–	–	–	–	more than 300 μM	–	–	–	–
COc1c(Br)cc(Br)cc1C(=O)c1c(Br)c(Br)c(Br)n1C [PM 2, (3,5-Dibromo-2-methoxyphenyl)(3,4,5-tribromo-1-methyl-1H-pyrrol-2-yl)methanone]	> 100	> 1.5	70 (≈ 42.7 µg/mL)	2.1	11.1 ± 3.26	11.1 ± 3.3	13.4	17.2 ± 3.2	17.2 ± 3.2	8.6	149 ± 41	> 7	11	–	–	–	–	–	179 to 180	–
O=C(c1cc(Br)c([N+](=O)[O-])[nH]1)c1cc(Cl)cc(Cl)c1O [PM 5c, (4-Bromo-5-nitro-1H-pyrrol-2-yl)(3,5-dichloro-2-hydroxyphenyl)methanone]	> 100	> 0.3	1 (≈ 0.38 µg/mL)	29.7	7.64 ± 1.88	7.6 ± 1.9	–	12 ± 2.85	12 ± 2.8	–	29.7 ± 5.7	> 7	8	–	–	–	1 (≈ 0.38 µg/mL)	2.2	175 to 177	fold more active than the synthetic PM-1 (S. aureus) ([2]; fold versus PM-1): 5; times more active than PM-C (S. aureus MBC) ([2]; fold versus PM-C): 90; times less toxic than PM-C (bacterial SI) ([2]; from bacterial selectivity index, S. aureus): 30; MIC [4]: 0.5 µM (≈ 0.19 µg/mL)
